The test system of one assay is KB. In words: Cytotoxicity against human KB cells. The format is functional.
Assay [1] in a line: Induction of DNA scission activity in at 25 ug/mL.
The next assay has as its system LNCaP. In words: Cytotoxicity against human LNCAP cells. The format is functional, cell-based.
A further assay deals with Lu1. The experiment in a line: Cytotoxicity against human Lu1 cells. The format is functional, cell-based.
For another assay, the system named is ZR-75-1. In words: Cytotoxicity against human ZR-75-1 cells. The assay is classed as functional, cell-based.
The test system of a further assay is U-373MG ATCC. The experiment in a line: Cytotoxicity against human U373 cells. The format is functional, cell-based.
For a further assay, the system named is BC1. The experiment in a line: Cytotoxicity against human BC1 cells. The assay is classed as functional, cell-based.

In brackets after ≈: the same amount, converted by molar mass. Activity calls are given as the source filed them. No cut-off for these calls is given here.

Take `CO[C@H]1CC(=O)C=CC[C@]1(O)/C=C\c1ccccc1` [MIMOSIFOLENONE]: the EC50 in the assay on KB (read-out: ED50 (the source's name)) was determined as 3.3 µg/mL (≈ 12.8 µM). For the same molecule, the outcome in assay [1] was inactive.
For `C=C[C@H](c1ccccc1)c1cc(OC)c(O)cc1OC`, the outcome with LNCaP, with KB, with Lu1, in the assay with ZR-75-1, in the assay on U-373MG ATCC and in the assay with BC1 was inactive.

The values above are taken from ChEMBL document CHEMBL1158191, “Two new aromatic constitutents from the rootwood of Aeschynomene mimosifolia” (1996).
